Data set [1] is described as follows: X-Ray diffraction, crystallinity of extrudates. Type of data set: physicochemical. The following applies: excipient extruded alone. As for the experimental part:
The crystal structure was characterized by X-Ray diffraction (LabX XRD6000, Shimadzu, Columbia, Md., USA). […] The powdered samples were placed in aluminum holders and measured in the reflection mode from 10 to 40° 2θ. The scanning rate was 5°/min using a sampling pitch of 0.02°. Each sample was measured in duplicate.

A short description of data set [2]: Dissolution test, USP paddle apparatus, UV quantification of active pharmaceutical ingredient release. The class given is physicochemical. The following applies: water, 37° C., paddle 50 rpm; pure drug powder. As for the experimental part: Pre-mixed, dry powder materials (10% griseofulvin in α-mannitiol or 50% griseofulvin in α-mannitiol) were extruded using a production scale extruder (Leistritz Mikro GL 27-28D, Leistritz, Nuermber, Germany). […] The shear rate was varied on two levels during extrusion by varying the barrel length, the number of die holes and screw configuration. The extrudates were characterized by a dissolution test in accordance to the preliminary experiments (see FIG. 10). The dissolution tests were performed in a paddle apparatus (VK7030, Varian, Cary, N.C., USA) in accordance with the USP at 50 rpm. Six samples of each batch were tested in water at 37° C. as dissolution media. For the dissolution test, the extrudates were cut in small pieces of approximately 2 mg. The active pharmaceutical ingredient release was quantified with a UV-photometer (DU 640, Beckman, Fellerton, USA; Cary 300, Varian, Victoria, Australia) using different wavelengths (griseofulvin 296 nm, phenytoin 220 nm and spironolactone 243 nm) for 120 min using a cuvette with a 50 mm path length.

As for `OC[C@@H](O)[C@@H](O)[C@H](O)[C@@H](O)CO` [Sorbitol, sorbitol], the “crystallization after extrusion, in words” value in data set [1] is reported as “still predominantly amorphous after 24 h”. For the compound `COC1=CC(=O)C[C@@H](C)[C@]12Oc1c(Cl)c(OC)cc(OC)c1C2=O` [griseofulvin], in data set [2], the “time to attain 50% release” value is listed as “six”. Regarding `OC[C@@H](O)[C@@H](O)[C@@H](O)CO` [adonitol], in data set [1], the “crystallization after extrusion, in words” value is on record as “rapid crystallization”. In the case of `C[C@H](O)C(=O)O` [L-(+)-lactic acid, L-(+)-Lactic acid], the “time within which crystallization was completed” value in data set [1] is not above 24 h.

(Values after patent publication US20100222311A1, “SOLID FORMULATIONS OF CRYSTALLINE COMPOUNDS” (PURDUE RESEARCH FOUNDATION, priority 2007, published 2010).)
